Experiment [1] deals with human oral squamous cell carcinoma scc4 cell line. In words: MTT cell growth inhibition, scc4 cell line. Conditions: MTT method, in vitro. Format: cell-based. How it is done: (§1) The test drugs were dissolved in dimethyl sulfoxide to prepare a 100 mmol/L stock solution, which was stored at −20° C. for later use. When in use, the stock solution was diluted with a DMEM serum culture medium to a desired concentration.
(§2) The human oral squamous cell carcinoma scc4 cell line, the human oral squamous cell carcinoma CAL-27 cell line and the human oral squamous cell carcinoma HSC-4 cell line were separately cultured in a DMEM complete culture medium containing 10% fetal bovine serum and 0.1 g/L streptomycin and penicillin (the final concentration is 100 U·mL^−1), and the mixtures were incubated in an incubator at 37° C./5% CO2. When the cell confluence reached about 85%, the cells were mixed and digested using 0.02% EDTA and 0.25% trypsin, and then the cells were collected, centrifuged at 1000 r/min, and subcultured.
(§3) The IC50 value can be measured by a conventional method in the art (e.g., conventional MTT method), or can be measured by the following method (MTT method). […]
(§4) Half maximal inhibitory concentration IC50 was calculated according to inhibition rates at all concentrations using GraphPad Prism 5 software.

The test system of experiment [2] is human oral squamous cell carcinoma HSC-4 cell line. The experiment is described as follows: MTT cell growth inhibition, HSC-4 cell line. It is filed as cell-based. Conditions: MTT method, in vitro. The method, then: as §1, §2, §3, §4
(In general: Tetrazolium assays rely on reduction of a dye to a coloured formazan, in cell work by metabolically active cells.)

The test system of experiment [3] is human laryngeal squamous cell carcinoma Hep-2 cell line. The experiment is described as follows: MTT cell growth inhibition, Hep-2 cell line. Format: cell-based. To be noted: MTT method, in vitro. How it is done:
as §1
(§5) The human laryngeal squamous cell carcinoma Hep-2 cell line and the human laryngeal carcinoma TU212 cell line were separately cultured in a DMEM complete culture medium containing 10% fetal bovine serum and 0.1 g/L streptomycin and penicillin (the final concentration is 100 U·mL^−1), and the mixtures were incubated in an incubator at 37° C./5% CO2. When the cell fusion reached about 85%, the cells were mixed and digested using 0.02% EDTA and 0.25% trypsin, and then the cells were collected, centrifuged at 1000 r/min, and subcultured.
as §3, §4

Experiment [4] concerns human laryngeal carcinoma TU212 cell line. The experiment is described as follows: MTT cell growth inhibition, TU212 cell line. Format: cell-based. Conditions: MTT method, in vitro. The method, then:
as §1, §5, §3, §4

Experiment [5] concerns human oral squamous cell carcinoma CAL-27 cell line. In words: MTT cell growth inhibition, CAL-27 cell line. It is filed as cell-based. Conditions: MTT method, in vitro. How it is done: as §1, §2, §3, §4
Experiment [6] relates to head and neck cancer. The experiment is described as follows: Clinical study of anlotinib with intensity modulated radiotherapy in previously untreated head and neck cancer. To be noted: patients with head and neck cancer; anlotinib 10 mg/day combined with radiotherapy. Format: in vivo, human. The method, then: Previously untreated patients with pathologically confirmed head and neck cancer, specifically including ones with nasopharyngeal carcinoma, tonsil cancer, floor of mouth cancer, oral cancer, laryngeal cancer and hypopharyngeal cancer, were all received intensity modulated radiotherapy after administration of anlotinib. The administration regimens are detailed below. Anlotinib: administered about one week before radiotherapy, 10 mg/day for a three-cycle treatment, consecutively two-week treatment and then one-week interruption, and whether the medicine was administered continuously was determined according to the change in tumors after radiotherapy. The efficacy evaluation observation indexes include 3-year overall survival (OS), […] (DFS), 3-year distant metastasis rate and local control rate. Patient, pathologically diagnosed with tonsil cancer, starting taking anlotinib hydrochloride capsules on Oct. 10, 2018 once daily, orally before breakfast at a dose of 10 mg each time, with consecutively two-week treatment and then one-week interruption; starting receiving radiation therapy on Oct. 15, 2018. Patient, pathologically diagnosed with nasopharyngeal carcinoma, starting taking anlotinib hydrochloride capsules on Nov. […]

Experiment [7] concerns head and neck adenocarcinoma. The experiment is described as follows: Clinical study of anlotinib hydrochloride capsules in recurrent/metastatic head and neck adenocarcinomas. It is filed as in vivo, human. Conditions: patients with head and neck adenocarcinoma; 12 mg once daily orally, d1-14 of each 21-day cycle.

Molecules are shown by their SMILES. Counter-ions that a name gives are not always drawn.

For `COc1cc2c(Oc3ccc4[nH]c(C)cc4c3F)ccnc2cc1OCC1(N)CC1` [dihydrochloride of the compound I], the “effect on the proliferation of the human oral squamous cell carcinoma cells” value in experiment [1], in experiment [2] and in experiment [5] was “clear inhibitory effect” throughout. Also, the “effect on the proliferation of the human laryngeal squamous cell carcinoma cells” value in experiment [3] was “clear inhibitory effect”. Further, in experiment [4], the “effect on the proliferation of the human laryngeal carcinoma cells” value was “clear inhibitory effect”.

Consider `COc1cc2c(Oc3ccc4[nH]c(C)cc4c3F)ccnc2cc1OCC1(N)CC1` [anlotinib, 1-[[[4-(4-fluoro-2-methyl-1H-indol-5-yl)oxy-6-methoxyquinolin-7-yl]oxy]methyl]cyclopropylamine], for which the clinical benefits entry in experiment [6] and in experiment [7] was “had clinical benefits” throughout.

The values above are taken from patent US20220211694A1, “QUINOLINE DERIVATIVES FOR TREATMENT OF HEAD AND NECK CANCER” (CHIA TAI TIANQING PHARMACEUTICAL GROUP CO., LTD., priority 2019, published 2022).
